Results on six compounds are retold here after PubChem BioAssay (NCI).

Among the test systems are DU-145 prostate; SF-295 CNS; SNB-19 CNS; MDA-MB-435; KM12 colon; PC-3 prostate; U251 CNS; CCRF-CEM leukemia; SN12C renal; OVCAR-5 ovarian.
Test in all cases: NCI tumour cell line growth inhibition, 48 h

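Assay format: 96-well plates, 48-hour exposure. GI50 marks 50% less growth. Definition used: TGI = concentration required for complete inhibition of growth.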

Consider `CSC1=Nc2c(c(C)c(-c3ccccc3)n2CCCCl)C2=NC(=O)CN12`, for which the GI50 is 11.5 µM in the test on DU-145 prostate; 4.11 µM with SF-295 CNS; 3.97 µM in the test with SNB-19 CNS; 2.03 µM with MDA-MB-435; 4.2 µM in the test on KM12 colon; 8.68 µM with PC-3 prostate. The GI50 is 3.92 µM in the test with U251 CNS, 5.08 µM in the test with CCRF-CEM leukemia, 6.28 µM in the test with SN12C renal and 11.6 µM in the test on OVCAR-5 ovarian. For the same compound, the TGI in the test with DU-145 prostate was 26.7 µM; in the test with SF-295 CNS, 26.8 µM; in the test with SNB-19 CNS it was 17.8 µM; with MDA-MB-435, 4.65 µM; with KM12 colon it was 18.7 µM; in the test with PC-3 prostate, greater than 100 µM. Besides, the TGI was 16.4 µM with U251 CNS, greater than 100 µM in the test on CCRF-CEM leukemia, 39 µM in the test with SN12C renal and 37.8 µM in the test on OVCAR-5 ovarian.

As to `COc1ccc2c(c1)C(=O)c1c-2c(OCCN(C)C)nc2cc(OC)ccc12`, the GI50 in the test with DU-145 prostate is 1.64 µM; with SF-295 CNS it was 2.22 µM; in the test with SNB-19 CNS, 1.12 µM; in the test with MDA-MB-435 it was 1.62 µM; in the test on KM12 colon it was 0.759 µM; with PC-3 prostate, 1.24 µM. For the same compound, the GI50 in the test on U251 CNS was 1.2 µM; in the test with CCRF-CEM leukemia it was 0.536 µM; in the test on SN12C renal it was 1.06 µM; in the test with OVCAR-5 ovarian it was 1.9 µM. For the same compound, the TGI was found to be 8.03 µM in the test on DU-145 prostate; 11.5 µM with SF-295 CNS; 6.24 µM with SNB-19 CNS; 3.72 µM with MDA-MB-435; 2.14 µM in the test on KM12 colon; 3.69 µM with PC-3 prostate. For the same compound, the TGI came to 2.93 µM in the test with U251 CNS, 2.85 µM in the test on CCRF-CEM leukemia, 2.69 µM in the test on SN12C renal and 4.65 µM with OVCAR-5 ovarian.

For the compound `CCOC(=O)/C(=C/c1ccccc1)C(=O)c1ccccc1`, the GI50 was 5.32 µM in the test on DU-145 prostate; 4.19 µM in the test with SF-295 CNS; 5.84 µM with SNB-19 CNS; 2.96 µM in the test on MDA-MB-435; 2.82 µM in the test with KM12 colon; 4.6 µM in the test with PC-3 prostate. Further, the GI50 was 3.22 µM in the test on U251 CNS, 2.61 µM in the test with CCRF-CEM leukemia, 3.21 µM in the test on SN12C renal and 4.05 µM in the test on OVCAR-5 ovarian. The TGI in the test with DU-145 prostate was 17.4 µM; with SF-295 CNS, 15.2 µM; in the test on SNB-19 CNS, 20.7 µM; with MDA-MB-435, 11.5 µM; with KM12 colon, 7.54 µM; with PC-3 prostate, 22.7 µM. In addition, the TGI is 13.6 µM in the test with U251 CNS, 9.44 µM with CCRF-CEM leukemia, 12 µM in the test on SN12C renal and 16.9 µM in the test with OVCAR-5 ovarian.

As for `COc1ccc(C2=CC(c3ccc(Oc4ccnc5cc(Cl)ccc45)c(OC)c3)c3c(nc(OC)[nH]c3=O)N2)cc1` (stereo not given), the GI50 is 10.3 µM with DU-145 prostate; 6.42 µM in the test with SF-295 CNS; 61.4 µM with SNB-19 CNS; 5.06 µM in the test with MDA-MB-435; 5.91 µM with KM12 colon; 6.29 µM in the test with PC-3 prostate. Moreover, the GI50 in the test on U251 CNS is 6.94 µM; in the test with CCRF-CEM leukemia it was 3.25 µM; in the test on SN12C renal it was 7.03 µM; in the test with OVCAR-5 ovarian, 24.6 µM. The TGI in the test on DU-145 prostate, in the test on SF-295 CNS, with SNB-19 CNS, in the test on MDA-MB-435, in the test on KM12 colon and in the test with PC-3 prostate was greater than 100 µM throughout. For the same compound, the TGI in the test with U251 CNS, with CCRF-CEM leukemia, in the test on SN12C renal and with OVCAR-5 ovarian was greater than 100 µM throughout.

`COc1ccccc1-c1ccc2nc(NC(=O)Nc3cc(C(F)(F)F)cc(C(F)(F)F)c3)sc2c1`: the GI50 with DU-145 prostate is 4 µM; with SF-295 CNS it was 2.64 µM; with SNB-19 CNS it was 2.44 µM; with MDA-MB-435, 2.27 µM; with KM12 colon it was 2.07 µM; in the test with PC-3 prostate, 1.49 µM. The GI50 in the test on U251 CNS was 2.31 µM; in the test with CCRF-CEM leukemia, 2.43 µM; in the test with SN12C renal, 1.7 µM; in the test on OVCAR-5 ovarian, 2.54 µM. The TGI with DU-145 prostate stood at 14.9 µM; with SF-295 CNS, 9.33 µM; in the test with SNB-19 CNS it was 12.2 µM; in the test with MDA-MB-435 it was 6.73 µM; with KM12 colon it was 6.45 µM; in the test on PC-3 prostate, 6.93 µM. Further, the TGI in the test on U251 CNS came out at 10.3 µM; in the test with CCRF-CEM leukemia it was 15 µM; with SN12C renal, 3.36 µM; in the test with OVCAR-5 ovarian it was 9.66 µM.

Take `Nc1ccc(-c2ccc(Nc3cc(S(=O)(=O)O)c(N)c4c3C(=O)c3ccccc3C4=O)cc2)c(S(=O)(=O)O)c1`: the TGI with DU-145 prostate, in the test with SF-295 CNS, in the test on SNB-19 CNS, in the test with MDA-MB-435, in the test with KM12 colon and in the test on PC-3 prostate was greater than 100 µM each time. The TGI in the test with U251 CNS, in the test on CCRF-CEM leukemia, in the test on SN12C renal and in the test on OVCAR-5 ovarian was greater than 100 µM throughout.
